Assay results from ChEMBL document CHEMBL5325468, “Scaffold hopping derived novel benzoxazepinone RIPK1 inhibitors as anti-necroptosis agents” (Bioorg Med Chem, 2023).
Activity calls are given as the source filed them. The rule behind the calls is not given here.

Assays:
[1] = Cytotoxicity against human HT-29 cells assessed as reduction in cell viability; assay type: toxicity, cell-based
[2] = system: HT-29; assay: Anti-necroptotic activity against TSZ induced necroptosis in human HT-29 cells preincubated for 12 hrs followed by TSZ addition by CellTiter-Glo luminescent cell viability assay; assay type: functional, cell-based
[3] = molecular target: T1, Receptor-interacting serine/threonine-protein kinase 1 (Homo sapiens, UniProt Q13546); assay: Binding affinity to RIPK1 (unknown origin)
T1 sequence (Q13546 whole entry): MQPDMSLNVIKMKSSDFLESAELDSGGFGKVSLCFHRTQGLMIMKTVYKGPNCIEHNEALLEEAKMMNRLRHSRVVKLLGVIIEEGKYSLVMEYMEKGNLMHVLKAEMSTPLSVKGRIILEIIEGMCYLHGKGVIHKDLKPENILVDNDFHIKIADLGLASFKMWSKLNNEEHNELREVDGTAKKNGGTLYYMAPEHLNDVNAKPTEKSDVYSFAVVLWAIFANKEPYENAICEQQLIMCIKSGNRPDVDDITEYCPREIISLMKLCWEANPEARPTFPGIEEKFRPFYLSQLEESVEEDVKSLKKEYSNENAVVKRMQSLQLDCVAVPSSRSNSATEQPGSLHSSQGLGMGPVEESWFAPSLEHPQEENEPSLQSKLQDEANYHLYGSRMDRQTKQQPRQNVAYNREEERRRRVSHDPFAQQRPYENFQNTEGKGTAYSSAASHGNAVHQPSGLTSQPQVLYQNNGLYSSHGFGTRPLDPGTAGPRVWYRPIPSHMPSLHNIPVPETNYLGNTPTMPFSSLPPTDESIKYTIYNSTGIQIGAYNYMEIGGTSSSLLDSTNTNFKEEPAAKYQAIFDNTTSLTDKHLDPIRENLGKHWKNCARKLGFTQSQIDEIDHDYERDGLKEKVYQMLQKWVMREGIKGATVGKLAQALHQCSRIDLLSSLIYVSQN

[4] = system: Mus musculus; assay: Protection against mTNF-alpha induced SIRS in C57BL/6J mouse assessed as increase in survival rate at 20 mg/kg preincubated for 1 hr followed by mTNF-alpha addition measured upto 60 hrs; assay type: functional; settings: time <= 61 hrs
[5] = species on record: Mus musculus; assay: Protection against TNF-induced SIRS in C57BL/6J mouse assessed as reduction in body temperature loss preincubated for 1 hr followed by mTNF-alpha addition measured after 6 hrs […]; assay type: functional, organism-based; settings: time 7.0 hrs
[6] = molecular target: T2, Receptor-interacting serine/threonine-protein kinase 1 (Homo sapiens) (UniProt Q13546); assay: Inhibition of RIPK1 phosphorylation in TSZ induced human HT-29 cells at 100 nM incubated for 2 to 6 hrs by immunoblotting analysis; assay type: cell-based; settings: time 2-6 hrs
T2 sequence (whole entry): T1 sequence (Q13546 whole entry)

[7] = molecular target: T2, Receptor-interacting serine/threonine-protein kinase 1 (Homo sapiens); assay: Inhibition of RIPK1 phosphorylation in TSZ induced human HT-29 cells incubated for 6 hrs by immunoblotting analysis; assay type: cell-based; settings: dose 25-100 nM
[8] = system: Mus musculus; assay: Protection against mTNF-alpha induced SIRS in C57BL/6J mouse assessed as increase in survival rate at 10 mg/kg preincubated for 1 hr followed by mTNF-alpha addition measured upto 60 hrs; assay type: functional; settings: time <= 61 hrs
[9] = system: HT-29; assay: Anti-necroptotic activity against TCZ induced necroptosis in human HT-29 cells incubated for 16 hrs; assay type: functional, cell-based
[10] = system: Mus musculus; assay: Protection against mTNF-alpha induced SIRS in C57BL/6J mouse assessed as increase in survival rate at 2.5 mg/kg preincubated for 1 hr followed by mTNF-alpha addition measured upto 60 hrs; assay type: functional; settings: time <= 61 hrs
[11] = molecular target: T3, Receptor-interacting serine/threonine-protein kinase 3 (Homo sapiens, UniProt Q9Y572); settings: HT-29, dose 25-100 nM, time 6.0 hrs
Target sequence in this assay (Q9Y572 whole entry, looked up): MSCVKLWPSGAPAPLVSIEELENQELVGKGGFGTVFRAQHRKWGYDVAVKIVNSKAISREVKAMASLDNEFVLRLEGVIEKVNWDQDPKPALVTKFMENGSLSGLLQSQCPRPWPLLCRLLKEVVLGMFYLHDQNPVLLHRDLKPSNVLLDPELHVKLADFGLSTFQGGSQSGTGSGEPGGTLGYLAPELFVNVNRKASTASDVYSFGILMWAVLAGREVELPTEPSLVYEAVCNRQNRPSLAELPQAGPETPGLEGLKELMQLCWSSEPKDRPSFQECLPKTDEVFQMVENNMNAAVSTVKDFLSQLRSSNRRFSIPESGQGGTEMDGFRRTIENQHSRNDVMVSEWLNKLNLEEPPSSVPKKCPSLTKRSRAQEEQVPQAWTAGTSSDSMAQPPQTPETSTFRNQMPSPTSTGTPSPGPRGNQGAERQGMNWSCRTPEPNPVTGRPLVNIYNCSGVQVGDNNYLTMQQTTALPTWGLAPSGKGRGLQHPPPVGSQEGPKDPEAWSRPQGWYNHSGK

[12] = molecular target: T3, Receptor-interacting serine/threonine-protein kinase 3; assay: Binding affinity to RIPK3 (unknown origin)
Target sequence in this assay (Q9Y572 whole entry): as the sequence (Q9Y572 whole entry, looked up) above

[13] = system: U-937; assay: Anti-necroptotic activity against TSZ induced necroptosis in human U-937 cells preincubated with compound followed by TSZ addition for 12 hrs; assay type: functional, cell-based
[14] = system: Mus musculus; assay: Protection against mTNF-alpha induced SIRS in C57BL/6J mouse assessed as increase in survival rate at 5 mg/kg preincubated for 1 hr followed by mTNF-alpha addition measured upto 60 hrs; assay type: functional; settings: time <= 61 hrs
[15] = system: HT-29; assay: Inhibition of TSZ induced necrosomes formation in human HT-29 cells at 100 nM incubated for 6 hrs by Western blotting analysis; assay type: functional, cell-based
[16] = system: HT-29; assay: Anti-necroptotic activity against TSZ induced necroptosis in human HT-29 cells incubated for 12 hrs; assay type: functional, cell-based
[17] = molecular target: T4, Mixed lineage kinase domain-like protein (Homo sapiens) (UniProt Q8NB16); assay: Inhibition of MLKL phosphorylation in TSZ induced human HT-29 cells at 100 nM incubated for 2 to 6 hrs by immunoblotting analysis; assay type: cell-based; settings: time 2-6 hrs
T4 sequence (whole entry): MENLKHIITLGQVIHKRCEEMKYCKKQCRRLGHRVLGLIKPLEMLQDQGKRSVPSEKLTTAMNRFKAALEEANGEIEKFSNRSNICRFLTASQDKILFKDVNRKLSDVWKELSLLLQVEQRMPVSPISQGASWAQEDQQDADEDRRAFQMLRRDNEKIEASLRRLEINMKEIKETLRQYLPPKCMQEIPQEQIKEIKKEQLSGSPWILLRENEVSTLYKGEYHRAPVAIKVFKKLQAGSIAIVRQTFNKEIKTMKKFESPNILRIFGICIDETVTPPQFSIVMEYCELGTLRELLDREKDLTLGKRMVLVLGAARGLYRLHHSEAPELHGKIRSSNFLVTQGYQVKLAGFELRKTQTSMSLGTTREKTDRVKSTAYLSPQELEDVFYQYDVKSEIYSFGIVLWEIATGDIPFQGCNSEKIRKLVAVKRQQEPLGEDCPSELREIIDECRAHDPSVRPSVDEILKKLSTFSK

[18] = molecular target: T3, Receptor-interacting serine/threonine-protein kinase 3; settings: HT-29, dose 100.0 nM, time 2-6 hrs
Target sequence in this assay (Q9Y572 whole entry, looked up): as the sequence (Q9Y572 whole entry, looked up) above
Description: Inhibition of RIPK3 phosphorylation in TSZ induced human HT-29 cells at 100 nM incubated for 2 to 6 hrs by immunoblotting analysis

[19] = species on record: Homo sapiens; assay: Selectivity ratio of Kd for RIPK3 (unknown origin) to Kd for RIPK1 (unknown origin)
[20] = molecular target: T4, Mixed lineage kinase domain-like protein (Homo sapiens); assay: Inhibition of MLKL phosphorylation in TSZ induced human HT-29 cells incubated for 6 hrs by immunoblotting analysis; assay type: cell-based; settings: dose 25-100 nM

| SMILES | CC50 [1] | EC50 [2] | further results |
| --- | --- | --- | --- |
| Cc1ccccc1-c1cccc2cc(C(=O)N[C@H]3COc4ccccc4N(C)C3=O)[nH]c12 | > 100 µM | 0.0454 µM | Kd [3]: 0.27 µM |
| Cc1cccc(-c2cccc3cc(C(=O)N[C@H]4COc5ccccc5N(C)C4=O)[nH]c23)c1 | > 100 µM | 0.271 µM | – |
| CN1C(=O)[C@@H](NC(=O)c2cc3cccc(-c4ccccc4F)c3[nH]2)COc2ccccc21 | > 100 µM | 0.0323 µM | Kd [3]: 0.19 µM |
| COc1ccccc1-c1cccc2cc(C(=O)N[C@H]3COc4ccccc4N(C)C3=O)[nH]c12 | > 100 µM | 0.775 µM | – |
| CN1C(=O)[C@@H](NC(=O)c2cc3cccc(-c4ccc(F)c(F)c4)c3[nH]2)COc2ccccc21 | > 100 µM | 0.129 µM | – |
| CN1C(=O)[C@@H](NC(=O)c2nnc(Cc3ccccc3)[nH]2)COc2ccccc21 [GSK2982772] | > 50 µM | – | – |
| CN1C(=O)[C@@H](NC(=O)c2n[nH]c(Cc3ccccc3)n2)COc2ccccc21 [GSK2982772] | – | 0.0041 µM | Activity [4]: 90%; Activity [5]: Active |
| CN1C(=O)[C@@H](NC(=O)c2cc3cccc(-c4ccc(C(F)(F)F)cc4)c3[nH]2)COc2ccccc21 | > 100 µM | 3.85 µM | – |
| CN1C(=O)[C@@H](NC(=O)c2cc3cccc(-c4ccc5ccccc5c4)c3[nH]2)COc2ccccc21 | > 100 µM | 18.1 µM | – |
| CN1C(=O)[C@@H](NC(=O)c2cc3cccc(-c4ccccc4)c3[nH]2)COc2ccccc21 | > 100 µM | 0.0162 µM | inhibition [6]: Active; inhibition [7]: Dose-Dependent Effect; Activity [8]: 100%; Activity [9]: Active; Activity [10]: 75%; inhibition [11]: Dose-Dependent Effect; Kd [12]: 2.4 µM; Activity [13]: Dose-Dependent Effect; Activity [14]: 100%; inhibition [15]: Active; Activity [5]: Active; Activity [16]: Dose-Dependent Effect; inhibition [17]: Active; inhibition [18]: Active; Selectivity ratio [19]: 8; inhibition [20]: Dose-Dependent Effect; Kd [3]: 0.19 µM |
| Cc1cccc(-c2cccc3cc(C(=O)N[C@H]4COc5ccccc5N(C)C4=O)[nH]c23)c1C | > 100 µM | 0.302 µM | – |
| Cc1ccc(C)c(-c2cccc3cc(C(=O)N[C@H]4COc5ccccc5N(C)C4=O)[nH]c23)c1 | > 100 µM | 2.06 µM | – |
| Cc1cccc(C)c1-c1cccc2cc(C(=O)N[C@H]3COc4ccccc4N(C)C3=O)[nH]c12 | > 100 µM | 1.48 µM | – |
| COc1cccc(-c2cccc3cc(C(=O)N[C@H]4COc5ccccc5N(C)C4=O)[nH]c23)c1 | > 100 µM | 0.128 µM | – |
| CN1C(=O)[C@@H](NC(=O)c2cc3cccc(-c4cc(F)ccc4F)c3[nH]2)COc2ccccc21 | > 100 µM | 0.0885 µM | Kd [3]: 0.19 µM |
| COc1ccc(-c2cccc3cc(C(=O)N[C@H]4COc5ccccc5N(C)C4=O)[nH]c23)cc1 | > 100 µM | 3.8 µM | – |
| CN1C(=O)[C@@H](NC(=O)c2cc3cccc(-c4cccc(F)c4F)c3[nH]2)COc2ccccc21 | > 100 µM | 0.145 µM | Kd [3]: 0.26 µM |
| CN1C(=O)[C@@H](NC(=O)c2cc3cccc(-c4ccccc4C(F)(F)F)c3[nH]2)COc2ccccc21 | > 100 µM | 0.163 µM | – |
| CN1C(=O)[C@@H](NC(=O)c2cc3cccc(-c4ccc(F)cc4F)c3[nH]2)COc2ccccc21 | > 100 µM | 0.392 µM | Kd [3]: 0.2 µM |
| CN1C(=O)[C@@H](NC(=O)c2cc3cccc(-c4ccc(-c5ccccc5)cc4)c3[nH]2)COc2ccccc21 | > 100 µM | 0.438 µM | – |
| CN1C(=O)[C@@H](NC(=O)c2cc3cccc(-c4cccc(F)c4)c3[nH]2)COc2ccccc21 | > 100 µM | 0.096 µM | – |
| CN1C(=O)[C@@H](NC(=O)c2cc3cccc(-c4cccc(-c5ccccc5)c4)c3[nH]2)COc2ccccc21 | > 100 µM | > 10 µM | – |
| Cc1ccc(-c2cccc3cc(C(=O)N[C@H]4COc5ccccc5N(C)C4=O)[nH]c23)cc1C | > 100 µM | 1.67 µM | – |
| CN1C(=O)[C@@H](NC(=O)c2cc3cccc(-c4cccc(C(F)(F)F)c4)c3[nH]2)COc2ccccc21 | > 100 µM | 2.06 µM | – |
| Cc1ccc(-c2cccc3cc(C(=O)N[C@H]4COc5ccccc5N(C)C4=O)[nH]c23)cc1 | > 100 µM | 1.25 µM | – |
| CN1C(=O)[C@@H](NC(=O)c2cc3cccc(-c4cccc5ccccc45)c3[nH]2)COc2ccccc21 | > 100 µM | 0.956 µM | – |
| CN1C(=O)[C@@H](NC(=O)c2cc3cccc(-c4c(F)cccc4F)c3[nH]2)COc2ccccc21 | > 100 µM | 2.17 µM | – |
| Cc1ccc(-c2cccc3cc(C(=O)N[C@H]4COc5ccccc5N(C)C4=O)[nH]c23)c(C)c1 | > 100 µM | 4.36 µM | – |
| CN1C(=O)[C@@H](NC(=O)c2cc3cccc(-c4ccccc4-c4ccccc4)c3[nH]2)COc2ccccc21 | > 100 µM | > 10 µM | – |
| CN1C(=O)[C@@H](NC(=O)c2cc3cccc(-c4ccc(F)cc4)c3[nH]2)COc2ccccc21 | > 100 µM | 0.356 µM | – |
